Laboratory results reported in patent US20250367322A1, “NUCLEOBASE EDITING SYSTEM AND METHOD OF USING SAME FOR MODIFYING NUCLEIC ACID SEQUENCES” (ReNAgade Therapeutics Management, Inc., priority 2022, published 2025).

What was measured:
[1] = tested on: Mus musculus EMX1 locus (mEMX1); assay: In vivo TnpB editing of mouse EMX1 locus in liver, delivered with an LNP (indels detected by NGS); conditions: TnpB delivered with an LNP (Table (III) Compound C59), FIG. 7
human EMX1 locus (hEMX1) = assay: TnpB endonuclease editing of human EMX1 locus in HEK293T cells (indels detected by NGS); assay type: cell-based; conditions: FIG. 5

Molecule	editing of Mus musculus EMX1 locus (mEMX1) in liver in vivo [1]	editing of human EMX1 locus (hEMX1) (human EMX1 locus (hEMX1))
CCCCCC(CCCCC)CCOC(=O)CCCCCCCC(CCCCCCCC(=O)OC1CC2CCCC1C2)OC(=O)CCCN(C)C (centres unmarked) [Compound C59]	edits Mus musculus EMX1 locus (mEMX1) in liver in vivo	–
TnpB (SEQ ID NO: 1): "TnpB (SEQ ID NO: 1) endonuclease edits human EMX1 locus (hEMX1) in HEK293T cells" (protein, Deinococcus radiodurans) MIRNKAFVVRLYPNAAQTELINRTLGSARFVYNHFLARRIAAYKESGKGLTYGQTSSELTLLKQAEETSWLSEVDKFALQNSLKNLETAYKNFFRTVKQSGKKVGFPRFRKKRTGESYRTQFTNNNIQIGEGRLKLPKLGWVKTKGQQDIQGKILNVTVRRIHEGHYEASVLCEVEIPYLPAAPKFAAGVDVGIKDFAIVTDGVRFKHEQNPKYYRSTLKRLRKAQQTLSRRKKGSARYGKAKTKLARIHKRIVNKRQDFLHKLTTSLVREYEIIGTEHLKPDNMRKNRRLALSISDAGWGEFIRQLEYKAAWYGRLVSKVSPYFPSSQLCHDCGFKNPEVKNLAVRTWTCPNCGETHDRDENAALNIRREALVAAGISDTLNAHGGYVRPASAGNGLRSENHATLVV	–	edits human EMX1 locus
